Where two headings read alike, the source gives them in different places.
Columns and labels:
[1] = test system: maximal SAP response to Big-ET; test: In vivo inhibition of maximal SAP response to Big-ET in anesthetized rats after oral administration; design: species or system Rats (Sprague-Dawley); conditions: oral by gavage, 100 μmol/kg, 1 h before Big-ET challenge; mean ± standard error; negative = inhibition
Protocol: Rats (Sprague-Dawley, CRLD=Charles River) were anaesthetised with 1 ml/kg Rompun/Ketavet 1:1. A pressure transducer (Statham) was inserted into the carotid artery to measure blood pressure.
For oral testing, the substances (or vehicle) were given by gavage at doses of 100 μmol/kg each, 1 h before the Big-ET challenge, and blood pressure and heart rate were monitored as described above.
The inhibition of maximal SAP response to Big-ET in anesthetized rats following oral administration of the test substances of Formula I is set forth in the following Table 3c: […]
Data given in table 3c as negative values indicate an inhibitory effect. Values are means from 3-6 independent series of experiments ±standard error.

[2] = test system: NEP (prepared from pig kidney cortex); test: Enzymatic breakdown of CNP and VIP by NEP and its inhibition, in vitro, HPLC; format: biochemical
Protocol: The inhibition of the enzymatic breakdown of CNP and VIP by the compounds used according to the invention was measured in an enzymatic in vitro assay according to the following protocol:
All test compounds were dissolved in DMSO at 10 mM and further diluted with assay buffer.
80 μl of assay buffer, 10 μl of enzyme working solution (NEP or hSEP) and 10 μl of peptide stock solution (VIP or CNP) were mixed in an Eppendorf vial and incubated for 120 min. at 37° C. The enzymatic reaction was subsequently terminated by heating to 95° C. for 5 min. After centrifugation (Heraeus Biofuge B, 3 min) the supernatant was subjected to HPLC.
70 μl of assay buffer, 10 μl of enzyme working solution (NEP or hSEP) and 10 μl of a test compound solution were mixed in an Eppendorf vial and preincubated at 37° C. for 15 minutes. Then, 10 μl of peptide stock solution (VIP or CNP) was added and the reaction mixture was incubated at 37° C. for 60 min. to allow enzymatic hydrolysis. […]
All peptides were detected by absorbance at 214 nm (UV spectroscopy). The percentage (=%) of hydrolysis was calculated on the basis of the peak area of the undegraded peptide for an enzyme containing sample Y in correlation to a sample containing the same concentration of peptide without enzyme (blank) by the following equation: % hydrolysis=100*(blank−Y) […]

Row | Compound | % substance-related inhibition of the maximum Big-ET effect on SAP vs. control [1] [%] | IC50 ([2]; substrate CNP (32-53), read-out: inhibition of breakdown of CNP by NEP, IC50) [nM] | IC50 ([2]; substrate VIP, read-out: inhibition of breakdown of VIP by NEP, IC50) [nM]
1 | CN(C)CCCN(C)C(=O)CC(CC1(C(=O)NC2CCc3ccccc3N(CC(=O)O)C2=O)CCCC1)C(=O)O (stereo not drawn) [Example 64, 2-[(1-{[1-(carboxymethyl)-2-oxo-2,3,4,5-tetrahydro-1H-1-benzazepin-3-yl]carbamoyl}cyclopentyl)methyl]-4-{[3-(dimethylamino)propyl](methyl)amino}-4-oxobutanoic acid] | −53 ± 5 | – | –
2 | {(3S)-3-[({1-[(2″rel1″)-2-ethoxycarbonyl)-4-(isopropylamino)-4-oxobutyl]cyclopentyl}-carbonyl)amino]-2-oxo-2,3,4,5-tetrahydro-1H-1-benzazepin-1-yl}acetic acid [Example 4] | – | 10.1 | 3.1
